This note sets out measurements from ChEMBL document CHEMBL1131650, “Reactions of 1-methylbenzimidazole derivatives with m-chloroperoxybenzoic acid” (Bioorg Med Chem Lett, 1998).

The series in a line: Compound was evaluated for dissociation constant (pKa). The series is classed as physicochemical.

For orientation: pKa means the pH at which an ionisable group is half protonated. Low readings indicate a stronger acid or weaker base, high ones a weaker acid or stronger base. In turn, `Cc1ccc2ncn(C)c2c1` returned a pKa of 5.7.

The molecule `Cn1cnc2cc([N+](=O)[O-])ccc21` registered a pKa of 3.28.

For the molecule `Cc1cc2ncn(C)c2cc1C`, the pKa was determined as 6.

Take `Cn1cnc2ccc([N+](=O)[O-])cc21`: the pKa stood at 3.35.

In turn, `Cc1ccc2c(c1)ncn2C` returned a pKa of 5.65.

For `Cn1cnc2ccccc21`, the pKa came out at 5.6.

The molecule `Cn1cnc2cc([N+](=O)[O-])c([N+](=O)[O-])cc21` came in with a pKa of 1.6.
